According to patent EP2924040A1, “2-Amino-1-(o-tolyl)pyrrolo[3,2-b]quinoxaline-3-carboxamide derivates” (Universität Zürich, priority 2014, dated 2015):

Columns and labels:
Breast HS578T = test: NCI DTP Human Tumor Cell Line Screen (SRB); format: cell-based; conditions: Hs-578T, 48 h
Description: (§1) Compound 2 was further screened against cancer cell lines by the National Cancer Institute (NCI). This screen was performed as per the description provided at http://dtp.nci.nih.gov/branches/btb/ivclsp.html. "The NCI 60 panel cell lines were grown in RPMI 1640 medium supplemented with 5% (v/v) fetal bovine serum and 2 mM L-glutamine at 37° C, 5 % CO2, 95 % air and 100 % relative humidity. Cells were seeded at 5,000 - 40,000 cells/well depending on their doubling time. After 24 hours of incubation, DMSO stock solutions of the compounds (400X) were added at 5 different concentrations (in […] serial dilutions). After 48 h cells were fixed with trichloroacetic acid (10% or 16% final concentration for adherent cells and suspension cells respectively) and incubated for 60 minutes at 4°C. After discarding the supernatant, plates were washed with water (5x) and air dried. Sulforhodamine B (SRB) solution (100 µl) at 0.4 % (w/v) in 1% acetic acid was added to each well and incubated for 10 minutes at 4°C, followed by washing with 1% acetic acid (5x) and air drying. The bound stain was solubilized with 10mM trizma base and determined by absorbance measurement on an automated plate reader at a wavelength of 515 nm. The percentage growth inhibition was calculated as followed, being Tz time zero measurements, C control growth measurements and Ti test growth experiments in the present of the drug. [(Ti-Tz)/(C-Tz)] x 100 for concentrations for which Ti>/=Tz [(Ti-Tz)/Tz] x 100 for concentrations for which Ti<Tz.
(§2) Three dose response parameters were calculated for each cell line. Growth inhibition of 50% (GI50) is calculated from [(Ti-Tz)/(C-Tz)] x 100 = 50 and corresponds to the drug concentration required in order to reduce by 50% the net protein increase in comparison to the control experiments. Total growth inhibition (TGI) is calculated from Ti = Tz. The LC50 indicates the drug concentration needed to reduce by 50% the measured protein at the end of the drug treatment as compared to that of the beginning and is derived from [(Ti-Tz)/Tz] x 100 = -50." Table 2: GI50 in a selection of cancer cell lines of the National Cancer Institute for compound 2

CNS SNB75 = test: NCI DTP Human Tumor Cell Line Screen (SRB); format: cell-based; conditions: SNB-75, CNS SNB75, 48 h
Description: as §1, §2

NSCLC HOP92 = test: NCI DTP Human Tumor Cell Line Screen (SRB); format: cell-based; conditions: HOP-92, NSCLC HOP92, 48 h
Description: as §1, §2

Leukemia K562 = test: NCI DTP Human Tumor Cell Line Screen (SRB); format: cell-based; conditions: Leukemia K562, 48 h
Description: as §1, §2

Breast MDA-MB-231 = test: NCI DTP Human Tumor Cell Line Screen (SRB); format: cell-based; conditions: Breast MDA-MB-231, 48 h
Description: as §1, §2

Renal A498 = test: NCI DTP Human Tumor Cell Line Screen (SRB); format: cell-based; conditions: Renal A498, 48 h
Description: as §1, §2

Colon HT29 = test: NCI DTP Human Tumor Cell Line Screen (SRB); format: cell-based; conditions: HT-29, Colon HT29, 48 h
Description: as §1, §2

Renal RXF393 = test: NCI DTP Human Tumor Cell Line Screen (SRB); format: cell-based; conditions: RXF 393, Renal RXF393, 48 h
Description: as §1, §2

[1] = In vivo pharmacokinetics in blood plasma; conditions: male CD-1 mice
Description: Evaluation of the in vivo pharmacokinetics of a subset of compounds was performed through analysis of compound concentration in the blood plasma of male CD-1 (ICD) mice (each weighing 20-30 g) over a 24 hour period (at time points of 3, 10, 30, 60, 120, 240, 360 and 1440 minutes) following a single oral (PO) and intravenous (IV, in tail vein) administration of a compound dose corresponding to 5 mg of compound/kg of mouse body weight (PO) and 1 mg of compound/kg of mouse body weight (IV). For IV dosing, each compound was formulated as a clear solution in DMSO/Solutol® HS 15/phosphate-buffered saline, pH 7.4 (PBS) (5/5/90, v/v/v). For PO dosing, compounds were formulated as a homogeneous suspension in DMSO/1% methylcellulose (5/95, v/v).
At the relevant time point, blood samples (300-400 µL) were collected from the mice under general inhalant anaesthesia by cardiac puncture and stored on ice in 0.6 mL polypropylene heparin-lithium-coated tubes. Within 1 hour of collection, each tube was centrifuged at 2500 G for 15 minutes at 4°C and harvested plasma stored at -20°C.
Compound concentration in plasma at each time point was determined following acetonitrile precipitation of each sample followed by HPLC-MS analysis performed in triplicates, i.e., based on the mean of the compound concentration at that time point in blood samples of three mice.
Table 3: In vivo pharmacokinetics (min: minutes)

With `Cc1ccc(O)cc1-n1c(N)c(C(N)=O)c2nc3ccccc3nc21` [Compound 2, 2-Amino-1-(5-hydroxy-2-methylphenyl)-1H-pyrrolo[2,3-b]quinoxaline-3-carboxamide] the GI50 (Breast HS578T) was 100 nM, the GI50 (CNS SNB75) was 28 nM and the GI50 (NSCLC HOP92) was 152 nM. For the same compound, the GI50 (Leukemia K562) was 229 nM, the GI50 (Breast MDA-MB-231) was 317 nM and the GI50 (Renal A498) was 162 nM. The GI50 (Colon HT29) was 244 nM, the GI50 (Renal RXF393) was 361 nM and the “T1/2 (min, IV)” value ([1]; IV 1 mg/kg, plasma) was 1.68 h. The “Bioavailibility (%)” value ([1]; [AUClast(PO)*Dose(IV)] / [AUClast(IV)*Dose(PO)]) was 25%, the Cmax ([1]; mouse, PO 5 mg/kg, plasma) was 240 ng/mL and the half-life ([1]; mouse, PO 5 mg/kg, plasma, read-out: T1/2 (min, PO)) was 1.67 h. The Tmax ([1]; mouse, PO 5 mg/kg, plasma, read-out: Tmax (min, PO) (converted)) was 0.5 h.
